Results as given in US20240254089A1, “MODULATORS OF MAS-RELATED G-PROTEIN RECEPTOR X4 AND RELATED PRODUCTS AND METHODS” (ESCIENT PHARMACEUTICALS, INC., priority 2020, published 2024).
Where two headings read alike, the source gives them in different places.

Target: T1, human MRGPR X4 (Homo sapiens, UniProt Q96LA9)
T1 construct: expressed in transfected cells
Assay: MRGPR X4 antagonist activity, IP-One Gq HTRF assay in stably transfected HEK cells
Assay type: cell-based
How it was run: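 IC50 comes from HTRF IP-1 accumulation in stably transfected HEK cells expressing human MRGPR X4. Compounds (10 uM top, 1:3 serial, 10 points) were co-incubated with 10 μM bilirubin, 20 μM deoxycholic acid or 100 μM conjugated bilirubin in LiCl-containing buffer, pH 8, for 1 h at 37 °C plus 30 min at room temperature.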

T1 sequence (Q96LA9 whole entry): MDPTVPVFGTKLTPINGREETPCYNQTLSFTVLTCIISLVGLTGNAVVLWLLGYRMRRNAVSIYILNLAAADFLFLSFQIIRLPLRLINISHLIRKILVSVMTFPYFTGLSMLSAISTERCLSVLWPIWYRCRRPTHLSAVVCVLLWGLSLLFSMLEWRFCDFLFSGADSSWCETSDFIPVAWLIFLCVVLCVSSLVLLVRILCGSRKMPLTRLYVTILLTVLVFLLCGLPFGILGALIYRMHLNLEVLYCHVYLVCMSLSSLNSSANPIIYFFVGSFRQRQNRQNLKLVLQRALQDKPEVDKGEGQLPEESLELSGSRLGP

SMILES | IC50 (versus 20 μM deoxycholic acid agonist, HEK cells expressing human MRGPR X4, read-out: MRGPRX4 Antagonist Activity) | IC50
O=C(NS(=O)(=O)c1ccccc1F)c1nn(Cc2ccc(OC(F)F)cc2)c2ccccc12 [Compound 269] | 1000 to 2500 nM | –
COc1ccccc1CCNC(=O)c1cn(Cc2ccc(Cl)cc2)c2ccccc12 [Compound 177] | – | 100 to 500 nM
O=C(NCCc1nnc2ccccn12)c1nn(Cc2cc3ccccc3o2)c2ccccc12 [Compound 496] | – | < 100 nM
